ChEMBL document CHEMBL1828561, “Identification of a potent and selective free fatty acid receptor 1 (FFA1/GPR40) agonist with favorable physicochemical and in vitro ADME properties” (J Med Chem, 2011)

Key:
[1] = Octanol-phosphate buffer partition coefficient, log D of the compound at pH 7.4 by HPLC analysis; assay type: physicochemical
1321-N1 = assay: Selectivity for human FFA1 receptor expressed in human 1321N1 cells over NK2 receptor; assay type: cell-based

SMILES: O=C(O)CCc1ccc(C#Cc2cc(Cl)nc(Cl)c2)cc1
- logD [1]: 1.97
- Selectivity ratio (1321-N1): > 100
